The numbers were not newly measured in patent US20110144207A1, “ARYL ALKYL CARBOXYLIC ACID SALTS, PROCESS FOR PREPARATION AND DOSAGE FORMS” (SHASUN CHEMICALS AND DRUGS LIMITED, priority 2008, published 2011), which cites them from elsewhere.

For data set [1] the following is noted: as described in EP application 1149828.
For data set [2] the following is noted: compared with conventional ibuprofen.

Where a name gives a salt, the structure may show the parent alone. Read-outs that look alike come from different tables or passages of the source.

Take `O=C(O)Cc1ccccc1Nc1c(Cl)cccc1Cl` [diclofenac sodium salt hemihydrate]: in data set [1] (sodium salt hemihydrate), the hygroscopic property entry is “no hygroscopic property”.
Consider `O=C(O)Cc1ccccc1Nc1c(Cl)cccc1Cl` [diclofenac sodium salt], for which the hygroscopic property entry in data set [1] (sodium salt) was “hygroscopic”.
As to `CC(C)Cc1ccc(C(C)C(=O)O)cc1.O.O.[Na]` (stereo not shown) [ibuprofen sodium dihydrate, Ibuprofen Sodium Dihydrate], in data set [2], the “Cmax (peak concentration)” value is given as “significantly higher” and the “tmax (time to peak concentration)” value is “earlier”.
